This passage reports activation and EC50 results from US10526345B2, “Compounds as GPR119 agonists” (Mankind Pharma Ltd., priority 2016, dated 2020).

The structures appear in SMILES notation.

In the first assay the target is T1, hGPR119 (Homo sapiens, UniProt Q8TDV5).
T1 construct: expressed in transfected cells; host or cells: CHO
T1 sequence (Q8TDV5 1-335): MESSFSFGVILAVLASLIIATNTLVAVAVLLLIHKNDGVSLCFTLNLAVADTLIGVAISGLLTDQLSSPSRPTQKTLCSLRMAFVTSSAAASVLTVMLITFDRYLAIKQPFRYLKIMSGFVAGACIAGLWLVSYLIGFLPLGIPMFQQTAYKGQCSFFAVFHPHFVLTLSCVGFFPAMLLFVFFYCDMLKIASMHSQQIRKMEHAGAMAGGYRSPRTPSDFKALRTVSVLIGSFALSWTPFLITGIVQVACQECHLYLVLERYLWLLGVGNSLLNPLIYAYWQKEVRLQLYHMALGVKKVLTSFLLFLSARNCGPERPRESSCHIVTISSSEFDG
As to the kind of experiment: In vitro cyclic AMP assay (Cisbio dynamic 2 HTRF kit) in CHO-hGPR119 cells. It counts as cell-based. The conditions noted are these: 1 h, cAMP, compound at 1 μM, 60 min, read-out: Induction (% induction at 1 μM). On the procedure: cAMP measurements were done using Cisbio dynamic 2 HTRF kit according to the manufacturer's protocol. Briefly, CHO-hGPR119 cells were plated at a cell density of 5000 cells/well/5 μl into a white small volume 384 well plate. The final concentrations of IBMX and DMSO used were 1 mM and 0.5% respectively. Cells were treated with various concentrations of the test compound for 60 min at room temperature. Cells were lysed by buffer containing Anti-cAMP antibody and d2-cAMP reagents and incubated for 1 hour at room temperature. HTRF was measured at 337 nm excitation and emission wavelengths of 665 nm and 620 nm on a microplate reader (Flurostar, BMG Labtech). Graphpad prism software was utilized for EC50 determinations.
`CC(C)c1noc(N2CCC(C(C)Oc3nc4ccc(-c5ccc(Cl)nc5)nc4s3)CC2)n1` (stereo not drawn) [Compound 1142, 2-(1-(1-(3-isopropyl-1,2,4-oxadiazol-5-yl)piperidin-4-yl)ethoxy)-5-(6-chloropyridin-3-yl)thiazolo[5,4-b]pyridine]: the activation at 1 µM is 72%.
For `CC(C)c1noc(N2CC[C@@H](COc3nc4ccc(-c5ccc(S(C)(=O)=O)cc5)nc4s3)[C@@H](F)C2)n1` [Compound 1128, 5-((3R,4S)-3-fluoro-4-(((5-(4-(methylsulfonyl)phenyl)thiazolo[5,4-b]pyridin-2-yl)oxy)methyl)piperidin-1-yl)-3-isopropyl-1,2,4-oxadiazole], the activation at 1 µM was 10%.
As to `CC(C)c1noc(N2CC[C@@H](COc3nc4ccc(-c5ccc(S(C)(=O)=O)cc5)nc4s3)[C@H](F)C2)n1` [Compound 1129, 5-((3S,4S)-3-fluoro-4-(((5-(4-(methylsulfonyl)phenyl)thiazolo[5,4-b]pyridin-2-yl)oxy)methyl)piperidin-1-yl)-3-isopropyl-1,2,4-oxadiazole], the activation at 1 µM is 5%.
Regarding `CC(Oc1nc2ccc(-c3ccc(S(C)(=O)=O)nc3)nc2s1)C1CCN(c2ncc(C3CC3)cn2)CC1` (stereo not drawn) [Compound 1137, 2-(1-(1-(5-cyclopropylpyrimidin-2-yl)piperidin-4-yl)ethoxy)-5-(6-(methylsulfonyl)pyridin-3-yl)thiazolo[5,4-b]pyridine], the activation at 1 µM was determined as 73%.
On to `CC(C)c1noc(N2CCC([C@H](C)Oc3nc4ccc(-c5ccc(C(F)(F)F)nc5)nc4s3)CC2)n1` [Compound 1152, 2-(1-(1-(3-isopropyl-1,2,4-oxadiazol-5-yl)piperidin-4-yl)ethoxy)-5-(6-(trifluoromethyl)pyridin-3-yl)thiazolo[5,4-b]pyridine], for which the activation at 1 µM worked out at 77%.
The same measure, in the same setting: for `CCc1cnc(N2CCC(C(C)Oc3nc4ccc(-c5ccc(S(C)(=O)=O)cc5)nc4s3)CC2)nc1` (stereo not drawn) [Compound 1055, 2-(1-(1-(5-ethylpyrimidin-2-yl)piperidin-4-yl)ethoxy)-5-(4-(methylsulfonyl)phenyl)thiazolo[5,4-b]pyridine] the value was 76%.
`CC(C)c1noc(N2CCC(C(C)Oc3nc4ccc(-c5ccc(C(=O)N(C)C)cc5F)nc4s3)CC2)n1` (stereo not drawn) [Compound 1046, 3-fluoro-4-(2-(1-(1-(3-isopropyl-1,2,4-oxadiazol-5-yl)piperidin-4-yl)ethoxy)thiazolo[5,4-]pyridin-5-yl)-N,N-dimethylbenzamide]: the activation at 1 µM is 1%.
Take `CS(=O)(=O)c1ccc(-c2ccc3nc(C4=CCN(CCO)CC4)sc3n2)cc1` [Compound 1015, 2-(4-(5-(4-(methylsulfonyl)phenyl)thiazolo[5,4-b]pyridin-2-yl)-5,6-dihydropyridin-1(2H)-yl)ethanol]: the activation at 1 µM is 2%.
For `CC(C)c1noc(N2CCC(Oc3nc4ccc(-c5ccc(S(C)(=O)=O)cc5)nc4s3)C(F)C2)n1` (stereo not drawn) [Compound 1060, 5-(3-fluoro-4-((5-(4-(methylsulfonyl)phenyl)thiazolo[5,4-b]pyridin-2-yl)oxy)piperidin-1-yl)-3-isopropyl-1,2,4-oxadiazole], the activation at 1 µM came to 39%.
As for `CC(C)c1noc(C2CCN(c3nc4ccc(Nc5ccc(S(C)(=O)=O)c(F)c5)nc4s3)CC2)n1` [Compound 1025, N-(3-fluoro-4-(methylsulfonyl)phenyl)-2-(4-(3-isopropyl-1,2,4-oxadiazol-5-yl)piperidin-1-yl)thiazolo[5,4-b]pyridin-5-amine], the activation at 1 µM stood at 12%.
On to `CC(C)c1noc(N2CCC(C(C)Oc3nc4ccc(-c5cnsc5)nc4s3)CC2)n1` (stereo not drawn) [Compound 1124, 2-(1-(1-(3-isopropyl-1,2,4-oxadiazol-5-yl)piperidin-4-yl)ethoxy)-5-(isothiazol-4-yl)thiazolo[5,4-b]pyridine], for which the activation at 1 µM came out at 30%.
`CC(C)c1noc(N2CCC(C(C)Oc3nc4ccc(-c5ccc(S(=O)(=O)C6CC6)nc5)nc4s3)CC2)n1` (stereo in doubt) [Compound 1164, 2-((S)-1-(1-(3-isopropyl-1,2,4-oxadiazol-5-yl)piperidin-4-yl)ethoxy)-5-(6-(cyclopropylsulfonyl)pyridin-3-yl)thiazolo[5,4-b]pyridine]: the activation at 1 µM came out at 72%.
The same measure, in the same setting: with `CC(C)OC(=O)N1CC=C(c2nc3ccc(-c4ccc(S(C)(=O)=O)cc4)nc3s2)CC1` [Compound 1011, isopropyl 4-(5-(4-(methylsulfonyl)phenyl)thiazolo[5,4-b]pyridin-2-yl)-5,6-dihydropyridine-1(2H)-carboxylate] the figure was 19%; with `C[C@H](Oc1nc2ccc(-c3ccc(S(C)(=O)=O)nc3)nc2s1)C1CCN(c2ncc(C(F)(F)F)cn2)CC1` [Compound 1166, 2-((S)-1-(1-(5-(trifluoromethyl)pyrimidin-2-yl)piperidin-4-yl)ethoxy)-5-(6-(methylsulfonyl)pyridin-3-yl)thiazolo[5,4-b]pyridine], 70%; with `CC(C)c1noc(N2CCC(COc3nc4ccc(-c5ccnc(F)c5)nc4s3)CC2)n1` [Compound 1086, 5-(4-(((5-(2-fluoropyridin-4-yl)thiazolo[5,4-b]pyridin-2-yl)oxy)methyl)piperidin-1-yl)-3-isopropyl-1,2,4-oxadiazole], 2%.
For `Cc1nscc1-c1ccc2nc(OC(C)C3CCN(c4nc(C(C)C)no4)CC3)sc2n1` (stereo not drawn) [Compound 1125, 3-isopropyl-5-(4-(1-((5-(3-methylisothiazol-4-yl)thiazolo[5,4-b]pyridin-2-yl)oxy)ethyl)piperidin-1-yl)-1,2,4-oxadiazole], the activation at 1 µM was 38%.
On to `CCCc1cnc(N2CCC(C(C)Oc3nc4ccc(-c5ccncc5)nc4s3)CC2)nc1` (stereo not drawn) [Compound 1150, 2-(1-(1-(5-propylpyrimidin-2-yl)piperidin-4-yl)ethoxy)-5-(pyridin-4-yl)thiazolo[5,4-b]pyridine], for which the activation at 1 µM came out at 67%.
As to `CC(C)c1nnc(N2CCC(C(C)Oc3nc4ccc(-c5ccc(S(C)(=O)=O)cc5)nc4s3)CC2)o1` (stereo not drawn) [Compound 1097, 2-isopropyl-5-(4-(1-((5-(4-(methylsulfonyl)phenyl)thiazolo[5,4-b]pyridin-2-yl)oxy)ethyl)piperidin-1-yl)-1,3,4-oxadiazole], the activation at 1 µM worked out at 34%.
As for `CC(CC1CCN(c2nc(C(C)C)no2)CC1)Oc1nc2ccc(-c3ccc(S(C)(=O)=O)cc3)nc2s1` (stereo not drawn) [Compound 1043, 3-isopropyl-5-(4-(2-((5-(4-(methylsulfonyl)phenyl)thiazolo[5,4-b]pyridin-2-yl)oxy)propyl)piperidin-1-yl)-1,2,4-oxadiazole], the activation at 1 µM was 4%.
As to `CC(C)c1noc(N2CCC(C(C)Oc3nc4ccc(-c5cnc(S(C)(=O)=O)cn5)nc4s3)CC2)n1` (stereo not drawn) [Compound 1158, 2-(1-(1-(3-isopropyl-1,2,4-oxadiazol-5-yl)piperidin-4-yl)ethoxy)-5-(5-(methylsulfonyl)pyrazin-2-yl)thiazolo[5,4-b]pyridine], the activation at 1 µM was found to be 80%.
As to `CC(Oc1nc2ccc(-c3ccc(S(C)(=O)=O)cc3)nc2s1)C1CCN(c2nc(C(F)(F)F)no2)CC1` (stereo not drawn) [Compound 1131, 5-(4-(1-((5-(4-(methylsulfonyl)phenyl)thiazolo[5,4-b]pyridin-2-yl)oxy)ethyl)piperidin-1-yl)-3-(trifluoromethyl)-1,2,4-oxadiazole], the activation at 1 µM was 40%.
For the molecule `Cc1cc(-c2ccc(S(C)(=O)=O)cc2)nc2sc(OCC3CCN(c4nc(C(C)C)no4)CC3)nc12` [Compound 1038, 3-isopropyl-5-(4-(((7-methyl-5-(4-(methylsulfonyl)phenyl)thiazolo[5,4-b]pyridin-2-yl)oxy)methyl)piperidin-1-yl)-1,2,4-oxadiazole], the activation at 1 µM was 11%.
In the case of `CC(Oc1nc2ccc(-c3ccc(S(C)(=O)=O)cc3)nc2s1)C1CCN(c2nc(C3CC3)no2)CC1` (stereo not drawn) [Compound 1048, 3-cyclopropyl-5-(4-(1-((5-(4-(methylsulfonyl)phenyl)thiazolo[5,4-b]pyridin-2-yl)oxy)ethyl)piperidin-1-yl)-1,2,4-oxadiazole], the activation at 1 µM was found to be 57%.
Still for that read-out and setting: for `CC(C)c1noc(N2CCC(C(C)Oc3nc4ccc(-c5ccc(NS(C)(=O)=O)cc5)nc4s3)CC2)n1` (stereo not drawn) [Compound 1074, N-(4-(2-(1-(1-(3-isopropyl-1,2,4-oxadiazol-5-yl)piperidin-4-yl)ethoxy)thiazolo[5,4-b]pyridin-5-yl)phenyl)methanesulfonamide] the value was 39%; for `CC(C)c1noc(N2CCC(C(C)Oc3nc4ccc(-c5ccc(S(C)(=O)=O)nc5)nc4s3)CC2)n1` (stereo not drawn) [Compound 1069, 3-isopropyl-5-(4-(1-((5-(6-(methylsulfonyl)pyridin-3-yl)thiazolo[5,4-b]pyridin-2-yl)oxy)ethyl)piperidin-1-yl)-1,2,4-oxadiazole], 80%.
With `CC(C)c1noc(N2CC=C(CCOc3nc4ccc(-c5ccc(S(C)(=O)=O)cc5)nc4s3)CC2)n1` [Compound 1035, 3-isopropyl-5-(4-(2-((5-(4-(methylsulfonyl)phenyl)thiazolo[5,4-b]pyridin-2-yl)oxy)ethyl)-5,6-dihydropyridin-1(2H)-yl)-1,2,4-oxadiazole], the activation at 1 µM worked out at 2%.

Staying with this assay, now noted: cAMP.
Regarding `CC(C)c1noc(N2CCC([C@H](C)Oc3nc4ccc(-c5ccc(C(F)(F)F)nc5)nc4s3)CC2)n1` [Compound 1152, 2-(1-(1-(3-isopropyl-1,2,4-oxadiazol-5-yl)piperidin-4-yl)ethoxy)-5-(6-(trifluoromethyl)pyridin-3-yl)thiazolo[5,4-b]pyridine], the EC50 was 50 to 100 nM.
